# Laboratory results reported in article PMC5118709, “Identification of Polo-like kinase 1 interaction inhibitors using a novel cell-based assay” (Scientific Reports, 2016).
# Tests used:
# [1] = molecular target: PBD of Plk1 (Homo sapiens, UniProt P53350); test: fluorescence polarization assay PBD-Map peptide; type: binding
# Protocol: The FP buffer was composed of 10 mM Tris pH 8.0, 50 mM NaCl, 1 mM EDTA, 20% glycerol and 0.1% NP-40. The peptide (final concentration 10 nM) was always added to the wells of non-binding, black, 384-well plates, 1 hour after the addition of the protein with the buffer (+/− treatment, 10% DMSO). […] EC65s were used to perform the competitive assays with the non-labeled peptides and with the inhibitors. FP Inhibition was calculated with the formula: 100 − [((mPsample − mPfree peptide)\(mPDMSO − mPfree peptide)) × 100]. […] (Map peptide), and corresponding non-labeled peptides are identical but without FITC in N-terminal. […] Inhibition curves were fitted with GraphPad (Prism software).
# [2] = test system: HeLa cells; test: mitotic defect phenotypes by immunofluorescence; type: cell-based; details: 10 μM, 7 h
# Procedure, shortened: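 HeLa cells on poly-L-lysine coverslips treated 7 h, fixed in 4% formaldehyde/PHEM at 37 °C. Immunostained for pericentrin and α-tubulin with DAPI for DNA; spindle organisation scored by fluorescence microscopy against DMSO controls.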
# [3] = test system: HeLa cells; test: mitotic index assay (phospho-Histone H3) in HeLa cells; type: cell-based; details: 10-25 μM, 7 h
# [4] = test system: HEK293T cells; test: mitotic index assay (phospho-Histone H3) in HEK293T cells; details: 10 μM
# [5] = molecular target: Plk1-Map interaction (Homo sapiens, UniProt P53350); test: BRET Plk1-Map, stable HEK293T Plk1-Luc/GFP-Map cell line; type: cell-based; design: cDNAs for the human full length Plk1; expressed in transfected cells
# Plk1-Map interaction, sequence (P53350 whole entry): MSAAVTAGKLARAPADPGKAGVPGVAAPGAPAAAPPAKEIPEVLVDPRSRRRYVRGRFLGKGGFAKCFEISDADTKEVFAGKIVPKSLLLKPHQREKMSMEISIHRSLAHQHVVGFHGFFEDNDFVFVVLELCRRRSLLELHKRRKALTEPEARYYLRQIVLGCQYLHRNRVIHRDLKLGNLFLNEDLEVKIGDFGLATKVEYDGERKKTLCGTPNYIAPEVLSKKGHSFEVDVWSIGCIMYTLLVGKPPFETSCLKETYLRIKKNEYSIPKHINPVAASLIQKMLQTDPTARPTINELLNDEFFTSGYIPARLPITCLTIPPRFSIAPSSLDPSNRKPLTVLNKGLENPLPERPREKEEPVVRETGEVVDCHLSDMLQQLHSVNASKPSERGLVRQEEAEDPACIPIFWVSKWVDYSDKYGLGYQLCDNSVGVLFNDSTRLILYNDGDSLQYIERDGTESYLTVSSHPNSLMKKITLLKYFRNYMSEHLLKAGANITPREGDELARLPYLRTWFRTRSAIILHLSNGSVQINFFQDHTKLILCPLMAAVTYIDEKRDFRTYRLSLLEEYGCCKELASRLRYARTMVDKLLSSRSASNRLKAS
# Source text: To develop a cell-based assay for the identification of Plk1 interaction inhibitors, we used Bioluminescence Resonance Energy Transfer (BRET)[42][43]. The assay monitors the interaction in HEK293T cells between Plk1 and Map205, a protein that we previously identified as an interactor of Drosophila Polo (Plk1 ortholog) on its PBD[44]. Although no ortholog of Drosophila Map205 has been found in vertebrates, this protein robustly interacts with vertebrate Plk1. […] Importantly, crystallography with zebrafish Plk1 has recently shown that Map205 nevertheless docks in the canonical phosphopeptide binding site of the PBD, with the natural phospho-mimetic Glu314 residue (Fig. 1A)[45]. In our assay, human Plk1 and a fragment of Drosophila Map205 (Map205_254-416 = Map) are respectively fused to Renilla luciferase II (Luc) and GFP10 (GFP), giving rise to energy transfer when the proteins are in close proximity (Fig. 1B). […] All combinations of Plk1 and Map tagged with Luc and GFP were tested (Supplementary Fig. S1). The Plk1-Luc/GFP-Map combination was selected because it yielded the highest BRET dynamic window. We then generated clonal stable cell lines co-expressing these two fusion proteins. These cell lines behaved very similarly to each other in BRET, and we selected one line that gave a high and reproducible BRET signal, with a Z′ score of 0.78, indicative of a robust assay for the purpose of a chemical screen (Supplementary Fig. S1).
# We used our cell-based assay to screen a library of 112 983 compounds available in-house at IRIC’s High-Throughput Screening (HTS) platform (see Materials & Methods). Compounds were tested on cells in 384-well plates at concentrations between 10 μM and 25 μM, depending on their concentration in the original stocks solutions. BRET readings were taken 2 hours after treatment. Results obtained show a tight, close to normal distribution centered around zero inhibition relative to DMSO-treated controls (Fig. 1D). Compounds inducing at least 30% BRET inhibition were selected. From these, auto-fluorescent compounds and those that induced more than 90% reduction in RLucII luminescence were removed, leaving 800 primary hits, that we then re-tested using the same assay. In parallel, we tested these compounds in a control BRET assay for an unrelated pair of interacting proteins (BRAF-CRAF[46]) to exclude false-positive compounds that could reduce the BRET signal by interfering with light or by modifying the activity of GFP or Luc.
# For BRET on transiently transfected cells, 48 hours after the transfection, medium was removed, cells were washed twice with PBS, and then Tyrode solution (140 mM NaCl, 2.7 mM KCl, 12 mM NaHCO3, 5.6 mM D-glucose, 0.49 mM MgCl2, 0.37 mM NaH2PO4, 25 mM HEPES, pH 7.4, where 1 mM CaCl2 was freshly added) was added to the cells. Total fluorescence was first measured using a FlexStation II microplate reader (Molecular Devices), where the GFP10 was excited at 400 nm and read at 510 nm. Then, cells were treated for 5 minutes with 2.5 μM coelenterazine 400a (Gold Technology) before reading BRET2 using the Mithras LB940 microplate reader (Berthold Technologies). BRET2 signal corresponds to the light emitted by the GFP10 acceptor constructs (515 nm ± 20 nm) divided by the light emitted by the RlucII donor constructs (400 nm ± 70 nm). Net BRET2 was calculated by subtracting the background BRET ratio of the RLucII plasmid alone from the BRET ratio obtained by the two BRET partners. The Net BRET2 was plotted according to the GFP10/RLucII ratio, which was obtained by dividing the total fluorescence by the RLucII emission.
# For the high throughput chemical screen, cells were amplified and frozen as multiple 1 ml aliquots containing 25 millions of stable HEK293T Plk1-Luc/GFP-Map cells to ensure that cells at the same passage number are used during the screen. […] Five days later, cells were counted and re-suspended in Tyrode solution. […]
# PBD of Plk1, sequence (P53350 367-603 limits assumed): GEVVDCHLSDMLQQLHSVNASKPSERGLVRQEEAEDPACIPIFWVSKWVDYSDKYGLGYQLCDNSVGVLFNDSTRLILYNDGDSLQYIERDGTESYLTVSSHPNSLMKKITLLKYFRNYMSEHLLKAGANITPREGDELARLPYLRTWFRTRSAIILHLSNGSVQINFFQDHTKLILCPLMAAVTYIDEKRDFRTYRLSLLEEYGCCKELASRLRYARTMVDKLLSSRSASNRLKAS
smiles,measurement,setting,value
"Cc1cc(C(F)(F)F)cc(S(=O)(=O)CCOC(=O)c2cccc(Cl)c2)n1 [Cpd 16, 2-((6-methyl-4-(trifluoromethyl)pyridin-2-yl)sulfonyl)ethyl 3-chlorobenzoate]",disruption of the PBD-Map interaction in FP,[1],disrupted the PBD-Map interaction
same,2 > pericentrin foci (percentage of cells),[2],23 ± 11%
same,Disorganized spindles (percentage of cells),[2],58 ± 13%
same,Mitotic index (%),[3],15.73%
same,"effect on mitotic index, purchased compounds",[4],effective
same,Primary screen Plk1-Map (stable) % Inihibition,"[5]; 10-25 μM, 2 h",67.34%
same,Primary screen Plk1-Map (stable) % Quench RLuc,"[5]; 10-25 μM, 2 h",86.24%
same,Confirmation Plk1-Map (stable) % Inihibition,[5]; confirmation screen,30.79%
same,Confirmation Plk1-Map (stable) % Quench RLuc,[5]; confirmation screen,81.37%
